Measurements from patent US7547676B2, “Antagonist peptides to the C5A chemotactic function of vitamin D binding protein” (The Research Foundation of State University of New York, priority 2004, dated 2009).

What was measured:
neutrophils [1] = assay: Neutrophil chemotaxis assay, C5a co-chemotactic activity of DBP; format: cell-based, human; design: effect on co-chemotactic activity of DBP, dose-response: dose or concentration left out as unconfirmed
Excerpt: Isolation of human neutrophils Neutrophils, serum, and plasma were isolated from the venous blood of healthy, medication-free, paid volunteers who gave informed consent. The Institutional Review Board of Stony Brook University approved this procedure. These procedures have been described in detail previously (Kew et al., 1995a).
Neutrophil chemotaxis assay Cell movement was quantitated using a 48 well microchemotaxis chamber (Neuroprobe, Cabin John, Md.) and 5.0 μm pore size cellulose nitrate filters (purchased from Neuroprobe) as previously described (Kew et al., 1995a). Cell suspensions and chemotactic factors were prepared and/or diluted in the chemotaxis assay buffer (Hank's balanced salt solution supplemented with 10 mM HEPES (pH 7.4) and 1% bovine serum albumin). Cell movement was quantitated microscopically by measuring the distance in microns (μm) that the leading front of cells had migrated into the filter according to the method described by Zigmond and Hirsch (1973). In each experiment, five fields per duplicate filter were measured at 400× magnification.

DBP = biological target: T1, DBP (Homo sapiens, UniProt P02774); conditions: Cooke and Haddad, 1989; cited from earlier work
T1 sequence (P02774 17-474): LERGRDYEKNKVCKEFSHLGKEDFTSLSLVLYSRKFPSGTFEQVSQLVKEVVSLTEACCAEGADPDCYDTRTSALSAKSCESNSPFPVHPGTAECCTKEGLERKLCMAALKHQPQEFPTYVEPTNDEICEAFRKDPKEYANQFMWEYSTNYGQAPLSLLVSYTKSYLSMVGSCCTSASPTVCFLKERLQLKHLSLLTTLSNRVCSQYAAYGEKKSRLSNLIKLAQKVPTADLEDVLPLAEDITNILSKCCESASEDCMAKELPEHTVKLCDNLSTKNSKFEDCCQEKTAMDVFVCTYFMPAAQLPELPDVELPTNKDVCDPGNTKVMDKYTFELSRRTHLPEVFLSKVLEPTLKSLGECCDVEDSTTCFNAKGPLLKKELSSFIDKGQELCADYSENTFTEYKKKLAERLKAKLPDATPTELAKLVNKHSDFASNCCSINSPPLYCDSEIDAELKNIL

neutrophils [2] = assay: Neutrophil viability; format: cell-based, human; conditions: 10 μM SOV
[3] = tested on: Alkaline phosphatase activity on the plasma membrane of viable neutrophils; assay: Neutrophil alkaline phosphatase assay (DiFMUP); format: cell-based, human; conditions: 5×10^6 cells pretreated with 10 nM 1,25(OH)2D3 or 10 μM SOV; untreated 11,107±1335 units
Protocol: Neutrophil alkaline phosphatase assay Alkaline phosphatase activity on the plasma membrane of viable neutrophils was measured using the fluorescent substrate 6,8-difluoro-4-methylumbelliferyl phosphate (DiFMUP) and the EnzChek Phosphatase Assay Kit (Molecular Probes, Eugene, Oreg.). Neutrophils (5×10^6 cells) were suspended in 50 μl of 0.1M sodium acetate (pH 5.0) and were immediately added to microtiter plates containing 50 μl of 0.2mM DiFMUP substrate and incubated for 5 min at 22° C. in the dark. A standard curve was generated using known amounts of the fluorescent compound 6,8-difluoro-7-hydroxy-4-methylcoumarin. Fluorescence was measured at 358 nm excitation and 455 nm emission using a SpectraMax M2 microtiter plate reader (Molecular Devices, Sunnydale, Calif.).

Row | SMILES | effect on co-chemotactic activity of DBP, dose-response (neutrophils [1]; bound to DBP) | effect on co-chemotactic activity of DBP (neutrophil chemotaxis toward C5a) (neutrophils [1]; ligand bound to DBP, 1,25(OH)2D3 100 nM) | affinity for DBP relative to 1,25(OH)2D3 (DBP) [fold] | cell viability (neutrophils [2]) | cells ability to migrate towards C5a plus DBP (neutrophils [1]; SOV alone) | reversal of the inhibitory effect of 1,25(OH)2D3 on the C5a co-chemotactic activity of DBP (neutrophils [1]; neutrophils pretreated with 10 μM SOV) | neutrophil AP activity [3] [units]
1 | C=C1CC[C@H](O)C/C1=C/C=C1\CCC[C@]2(C)[C@@H]([C@H](C)CCCC(C)(C)O)CC[C@@H]12 [25(OH)D3] | no effect on co-chemotactic activity | did not alter its ability to enhance neutrophil chemotaxis toward C5a | 10 | – | – | – | –
2 | [Na+].[Na+].[Na+].[O]=[V]([O-])([O-])[O-] [SOV, sodium orthovanadate] | – | – | – | did not alter cell viability | no effect | completely reverses the inhibitory effect | 667±111
